The text below walks through data of the supplement of paper PMC10307832.

SMILES strings stand for the structures.

For the first test, the system named is HOP-62. Description: relative viability (nuclei count vs DMSO), 5 days (fraction); higher = more cells survive. Particulars: first compound 2 µM. An outline of the steps: (§1)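 Values are medians from duplicate plates. Each reflects relative viability, defined as the nuclei count of treated wells over that of vehicle wells. Lung cancer cell lines in 1536-well plates were pin-tool dosed one day after seeding with one drug alone or with a fixed anchor-drug dose plus five library-drug doses (not always all listed) in √10 steps, then fixed, stained and imaged at 4× after 5 days.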
`COCC1(CO)C(=O)C2CCN1CC2` (stereo unspecified) [PRIMA-1MET] + CCNC(=O)c1noc(-c2cc(C(C)C)c(O)cc2O)c1-c1ccc(CN2CCOCC2)cc1 [Luminespib] (partner 0.01 µM) gave a relative viability of 0.923.
Molecule `COCC1(CO)C(=O)C2CCN1CC2` (stereo unspecified) [PRIMA-1MET] + CC(=O)c1c(C)c2cnc(Nc3ccc(N4CCNCC4)cn3)nc2n(C2CCCC2)c1=O [Palbociclib] (partner 0.5 µM) came in with a relative viability of 0.469.
In the case of `COCC1(CO)C(=O)C2CCN1CC2` (stereo unspecified) [PRIMA-1MET] + Cc1nc(Nc2ncc(C(=O)Nc3c(C)cccc3Cl)s2)cc(N2CCN(CCO)CC2)n1 [Dasatinib] (partner 0.075 µM), the relative viability amounted to 0.628.

The test is the same for the next values; noted with them: first compound 6.325 µM.
The molecule `COCC1(CO)C(=O)C2CCN1CC2` (stereo unspecified) [PRIMA-1MET] + CS(=O)(=O)N1CCN(Cc2cc3nc(-c4cccc5[nH]ncc45)nc(N4CCOCC4)c3s2)CC1 [Pictilisib] (partner 1 µM) showed a relative viability of 0.734.
On the same count and under the same terms, to `COCC1(CO)C(=O)C2CCN1CC2` (stereo unspecified) [PRIMA-1MET] + CCNC(=O)c1noc(-c2cc(C(C)C)c(O)cc2O)c1-c1ccc(CN2CCOCC2)cc1 [Luminespib] (partner 0.01 µM) belongs 0.91; to `COCC1(CO)C(=O)C2CCN1CC2` (stereo unspecified) [PRIMA-1MET] + CC(=O)c1c(C)c2cnc(Nc3ccc(N4CCNCC4)cn3)nc2n(C2CCCC2)c1=O [Palbociclib] (partner 0.5 µM), 0.475.
Turning to `COCC1(CO)C(=O)C2CCN1CC2` (stereo unspecified) [PRIMA-1MET] + Cc1nc(Nc2ncc(C(=O)Nc3c(C)cccc3Cl)s2)cc(N2CCN(CCO)CC2)n1 [Dasatinib] (partner 0.075 µM), the relative viability turned out to be 0.658.

Staying with this test, now noted: first compound 20 µM.
For the molecule `COCC1(CO)C(=O)C2CCN1CC2` (stereo unspecified) [PRIMA-1MET] + CS(=O)(=O)N1CCN(Cc2cc3nc(-c4cccc5[nH]ncc45)nc(N4CCOCC4)c3s2)CC1 [Pictilisib] (partner 1 µM), the relative viability stood at 0.392.
Molecule `COCC1(CO)C(=O)C2CCN1CC2` (stereo unspecified) [PRIMA-1MET] + CCNC(=O)c1noc(-c2cc(C(C)C)c(O)cc2O)c1-c1ccc(CN2CCOCC2)cc1 [Luminespib] (partner 0.01 µM) registered a relative viability of 0.786.
The molecule `COCC1(CO)C(=O)C2CCN1CC2` (stereo unspecified) [PRIMA-1MET] + CC(=O)c1c(C)c2cnc(Nc3ccc(N4CCNCC4)cn3)nc2n(C2CCCC2)c1=O [Palbociclib] (partner 0.5 µM) registered a relative viability of 0.317.
Consider `COCC1(CO)C(=O)C2CCN1CC2` (stereo unspecified) [PRIMA-1MET] + Cc1nc(Nc2ncc(C(=O)Nc3c(C)cccc3Cl)s2)cc(N2CCN(CCO)CC2)n1 [Dasatinib] (partner 0.075 µM), for which the relative viability was 0.582.

Another test has as its system HCC-44. The test is described as above. The conditions noted are these: first compound 0.2 µM. The gist of the method: as §1
`COCC1(CO)C(=O)C2CCN1CC2` (stereo unspecified) [PRIMA-1MET] + CS(=O)(=O)N1CCN(Cc2cc3nc(-c4cccc5[nH]ncc45)nc(N4CCOCC4)c3s2)CC1 [Pictilisib] (partner 1 µM) had a relative viability of 0.569.
`COCC1(CO)C(=O)C2CCN1CC2` (stereo unspecified) [PRIMA-1MET] + CCNC(=O)c1noc(-c2cc(C(C)C)c(O)cc2O)c1-c1ccc(CN2CCOCC2)cc1 [Luminespib] (partner 0.01 µM) came in with a relative viability of 1.36.
On the same count and under the same terms, to `COCC1(CO)C(=O)C2CCN1CC2` (stereo unspecified) [PRIMA-1MET] + CC(=O)c1c(C)c2cnc(Nc3ccc(N4CCNCC4)cn3)nc2n(C2CCCC2)c1=O [Palbociclib] (partner 0.5 µM) belongs 1.02.

Staying with this test, now noted: first compound 0.6325 µM.
`COCC1(CO)C(=O)C2CCN1CC2` (stereo unspecified) [PRIMA-1MET] + CS(=O)(=O)N1CCN(Cc2cc3nc(-c4cccc5[nH]ncc45)nc(N4CCOCC4)c3s2)CC1 [Pictilisib] (partner 1 µM) came in with a relative viability of 0.414.
Molecule `COCC1(CO)C(=O)C2CCN1CC2` (stereo unspecified) [PRIMA-1MET] + CCNC(=O)c1noc(-c2cc(C(C)C)c(O)cc2O)c1-c1ccc(CN2CCOCC2)cc1 [Luminespib] (partner 0.01 µM) gave a relative viability of 0.964.
As to `COCC1(CO)C(=O)C2CCN1CC2` (stereo unspecified) [PRIMA-1MET] + CC(=O)c1c(C)c2cnc(Nc3ccc(N4CCNCC4)cn3)nc2n(C2CCCC2)c1=O [Palbociclib] (partner 0.5 µM), the relative viability was 0.873.

The test is the same for the next values; noted with them: first compound 2 µM.
The molecule `COCC1(CO)C(=O)C2CCN1CC2` (stereo unspecified) [PRIMA-1MET] + CS(=O)(=O)N1CCN(Cc2cc3nc(-c4cccc5[nH]ncc45)nc(N4CCOCC4)c3s2)CC1 [Pictilisib] (partner 1 µM) displayed a relative viability of 0.426.
As to `COCC1(CO)C(=O)C2CCN1CC2` (stereo unspecified) [PRIMA-1MET] + CCNC(=O)c1noc(-c2cc(C(C)C)c(O)cc2O)c1-c1ccc(CN2CCOCC2)cc1 [Luminespib] (partner 0.01 µM), the relative viability amounted to 0.817.
Regarding `COCC1(CO)C(=O)C2CCN1CC2` (stereo unspecified) [PRIMA-1MET] + CC(=O)c1c(C)c2cnc(Nc3ccc(N4CCNCC4)cn3)nc2n(C2CCCC2)c1=O [Palbociclib] (partner 0.5 µM), the relative viability worked out at 0.95.

Staying with this test, now noted: first compound 6.325 µM.
For the molecule `COCC1(CO)C(=O)C2CCN1CC2` (stereo unspecified) [PRIMA-1MET] + CS(=O)(=O)N1CCN(Cc2cc3nc(-c4cccc5[nH]ncc45)nc(N4CCOCC4)c3s2)CC1 [Pictilisib] (partner 1 µM), the relative viability amounted to 0.651.
`COCC1(CO)C(=O)C2CCN1CC2` (stereo unspecified) [PRIMA-1MET] + CCNC(=O)c1noc(-c2cc(C(C)C)c(O)cc2O)c1-c1ccc(CN2CCOCC2)cc1 [Luminespib] (partner 0.01 µM) showed a relative viability of 1.14.
`COCC1(CO)C(=O)C2CCN1CC2` (stereo unspecified) [PRIMA-1MET] + CC(=O)c1c(C)c2cnc(Nc3ccc(N4CCNCC4)cn3)nc2n(C2CCCC2)c1=O [Palbociclib] (partner 0.5 µM) yielded a relative viability of 0.954.

The test is the same for the next values; noted with them: first compound 20 µM.
Turning to `COCC1(CO)C(=O)C2CCN1CC2` (stereo unspecified) [PRIMA-1MET] + CS(=O)(=O)N1CCN(Cc2cc3nc(-c4cccc5[nH]ncc45)nc(N4CCOCC4)c3s2)CC1 [Pictilisib] (partner 1 µM), the relative viability was found to be 0.611.
In turn, `COCC1(CO)C(=O)C2CCN1CC2` (stereo unspecified) [PRIMA-1MET] + CCNC(=O)c1noc(-c2cc(C(C)C)c(O)cc2O)c1-c1ccc(CN2CCOCC2)cc1 [Luminespib] (partner 0.01 µM) returned a relative viability of 0.896.
The molecule `COCC1(CO)C(=O)C2CCN1CC2` (stereo unspecified) [PRIMA-1MET] + CC(=O)c1c(C)c2cnc(Nc3ccc(N4CCNCC4)cn3)nc2n(C2CCCC2)c1=O [Palbociclib] (partner 0.5 µM) showed a relative viability of 1.03.
